For assay [1], the target named is dephosphorylated BTK (Homo sapiens (Human), UniProt Q06187). Kind of assay: BTK Activity Inhibition Test (mobility shift assay). It is filed as biochemical. To be noted: 200 μM ATP, read-out: Inhibitory Activity on BTK. Here is the method:
Dephosphorylated BTK was obtained by adding λ protein phosphatase (manufactured by New England BioLabs Inc., Code No. P0753S) and MnCl2 at 10 U/μg and 2 mM, respectively, to biotinylated BTK protein BTN-BTK (Manufactured by Carna Biosciences, Inc.) enzyme solution, reacting the mixture at 4° C. overnight, and removing of λ protein phosphatase by anti […]-tag antibody agarose gel chromatography, followed by buffer exchange using a 10DG Desalting Column.
The kinase activity was measured using QuickScout Screening Assist (trade mark) MSA (commercially available kit manufactured by Carna Biosciences, Inc.) by mobility shift assay (MSA) method. The substrate of the kinase reaction was an FITC-labeled SRCtide peptide included in the kit. An assay buffer [20 mM HEPES, 0.01% Triton X-100 (Trade mark), 2 mM dithiothreitol, pH 7.5] was used and adjusted at 4 μM substrate, 20 mM MgCl2 and 200 μm ATP to obtain a substrate mixture solution. The enzyme solution was also prepared by diluting the dephosphorylated BTK to 0.46 nM using the assay buffer. The 10 mM solution of the test compound in DMSO was further diluted with DMSO to 10 levels of the concentration (0.00003 mM, 0.0001 mM, 0.0003 mM, 0.001 mM, 0.003 mM, 0.01 mM, 0.03 mM, 0.1 mM, 0.3 mM, 1 mM), each of which was subjected to a 25-fold dilution with the assay buffer to obtain the drug solutions (4% DMSO solutions). 5 μL of the drug solution or a control solution (4% DMSO-assay buffer), 5 μL of the substrate mixture solution, and 10 μL of the enzyme solution were mixed in the wells of a polypropylene 384-well plate and allowed to react at room temperature for 2 hours, and then quenched by adding 60 μL of the termination buffer included in the kit. Subsequently, the quantities of the substrates (S) and the phosphorylated substrate (P) in the reaction solution were measured using LabChip EZ Reader II system (manufactured by Caliper Life Sciences) according to the protocol of the assay kit.
The heights of the peaks of the isolated substrate and the phosphorylated substrate were represented as S and P, respectively, and a blank which contained the assay buffer instead of the enzyme solution was also measured.
The inhibition rate (%) of the test compound was calculated according to the following equation; Inhibition rate (%)=(1−(C−A)/(B−A))×100 • wherein, A, B and C represent P/(P+S) of the blank well, P/(P+S) of the control well and P/(P+S) of the compound-containing well, respectively.
The IC50 value was calculated via a regression analysis of the inhibition rate (%) and the test compound concentration (logarithmic value).

Assay [2] concerns OCI-Ly10 cells. Nature of the assay: Proliferation-Inhibitory Test Against Diffuse Large-Cell B-Cell Lymphoma OCI-Ly10 Strain. It is filed as cell-based. To be noted: Homo sapiens, 96 hours, alamarBlue. Here is the method:
OCI-Ly10 cells were cultured in IMDM medium (Iscove's Modified Dulbecco's Medium, Manufactured by Thermo Fisher Scientific Inc., hereinafter “medium”) containing 20% Fetal bovine serum and 1% penicillin-streptomycin (Nacalai Tesque, Inc.) in a 5% CO2 incubator. OCI-Ly10 cells were seeded to 96-well plate (20000 cells/well), compounds diluted with medium were added with final concentrations of 0.9 nM to 30000 nM (Final DMSO concentration, 0.3%), incubated for 96 hours and alamorBlue reagent (Thermo Fisher Scientific Inc.) was added.
(Resazurin is reduced to fluorescent resorufin, in cell work by metabolically active cells.)

Each structure is given as a SMILES string. pIC50: −log10 of the molar value. Some results are limits rather than exact numbers.

Chain of dephosphorylated BTK (Q06187 whole entry): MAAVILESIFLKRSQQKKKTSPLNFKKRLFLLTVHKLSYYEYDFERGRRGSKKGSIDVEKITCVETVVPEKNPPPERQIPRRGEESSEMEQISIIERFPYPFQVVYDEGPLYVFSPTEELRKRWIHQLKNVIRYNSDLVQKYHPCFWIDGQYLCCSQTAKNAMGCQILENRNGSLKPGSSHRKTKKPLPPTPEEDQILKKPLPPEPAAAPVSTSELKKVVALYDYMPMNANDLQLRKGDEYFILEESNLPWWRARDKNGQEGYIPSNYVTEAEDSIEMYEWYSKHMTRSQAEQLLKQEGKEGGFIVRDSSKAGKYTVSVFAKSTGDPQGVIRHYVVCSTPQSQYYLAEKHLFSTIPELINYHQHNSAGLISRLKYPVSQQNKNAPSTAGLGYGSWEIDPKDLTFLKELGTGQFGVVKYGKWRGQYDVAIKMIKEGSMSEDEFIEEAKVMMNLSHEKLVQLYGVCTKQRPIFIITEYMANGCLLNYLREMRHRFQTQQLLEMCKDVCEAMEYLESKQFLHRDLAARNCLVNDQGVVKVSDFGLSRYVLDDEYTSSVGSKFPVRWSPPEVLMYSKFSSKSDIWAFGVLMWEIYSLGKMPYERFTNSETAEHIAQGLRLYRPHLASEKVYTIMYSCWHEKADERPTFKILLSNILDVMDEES

As for `COc1ccccc1-c1n[nH]c2nc(N)nc(-c3cccc(-n4ccc5cc(C6CC6)cc(F)c5c4=O)c3CO)c12` [Example 21, 2-{3-[6-amino-3-(2-methoxyphenyl)-1H-pyrazolo[3,4-d]pyrimidin-4-yl]-2-(hydroxymethyl)phenyl}-6-cyclopropyl-8-fluoroisoquinolin-1(2H)-one], in assay [1], the pIC50 was above 8.00.
On to `Nc1nc(-c2cccc(-n3ccc4cc(C5CC5)cc(F)c4c3=O)c2CO)c2nc(C3CC3)[nH]c2n1` [Example 12, 2-[3-(2-amino-8-cyclopropyl-9H-purin-6-yl)-2-(hydroxymethyl)phenyl]-6-cyclopropyl-8-fluoroisoquinolin-1(2H)-one], for which the pIC50 in assay [1] was above 8.00.
Same read-out and setting: to `COc1cccc(-c2n[nH]c3nc(N)nc(-c4cccc(-n5ccc6cc(C7CC7)cc(F)c6c5=O)c4CO)c23)c1` [Example 22, 2-{3-[6-amino-3-(3-methoxyphenyl)-1H-pyrazolo[3,4-d]pyrimidin-4-yl]-2-(hydroxymethyl)phenyl}-6-cyclopropyl-8-fluoroisoquinolin-1(2H)-one] belongs above 8.00.
Turning to `Nc1nc(-c2cccc(-n3ccc4cc(C5CC5)cc(F)c4c3=O)c2CO)c2cc(C3CC3)[nH]c2n1` [Example 9, 2-[3-(2-amino-6-cyclopropyl-7H-pyrrolo[2,3-d]pyrimidin-4-yl)-2-(hydroxymethyl)phenyl]-6-cyclopropyl-8-fluoroisoquinolin-1(2H)-one], the pIC50 in assay [1] is above 8.00.
As for `Nc1nc(-c2cccc(-n3ccc4cc(C5CC5)cc(F)c4c3=O)c2CO)c2nc[nH]c2n1` [Example 4, 2-[3-(2-amino-9H-purin-6-yl)-2-(hydroxymethyl)phenyl]-6-cyclopropyl-8-fluoroisoquinolin-1(2H)-one], in assay [1], the pIC50 is above 8.00.
Regarding `Cc1n[nH]c2nc(N)nc(-c3cccc(-n4ccc5cc(C6CC6)cc(F)c5c4=O)c3CO)c12` [Example 10, 2-[3-(6-amino-3-methyl-1H-pyrazolo[3,4-d]pyrimidin-4-yl)-2-(hydroxymethyl)phenyl]-6-cyclopropyl-8-fluoroisoquinolin-1(2H)-one], in assay [1], the pIC50 was above 8.00.
`Nc1nc(-c2cccc(-n3ccc4cc(C5CC5)cc(F)c4c3=O)c2CO)c2cc(CO)[nH]c2n1` [Example 11, 2-{3-[2-amino-6-(hydroxymethyl)-7H-pyrrolo[2,3-d]pyrimidin-4-yl]-2-(hydroxymethyl)phenyl}-6-cyclopropyl-8-fluoroisoquinolin-1(2H)-one]: the pIC50 in assay [1] is 7.00 to 8.00.
Turning to `Nc1nc(-c2cccc(-n3ccc4cc(C5CC5)cc(F)c4c3=O)c2CO)c2c(-c3ccccc3)c[nH]c2n1` [Example 28, 2-[3-(2-amino-5-phenyl-7H-pyrrolo[2,3-d]pyrimidin-4-yl)-2-(hydroxymethyl)phenyl]-6-cyclopropyl-8-fluoroisoquinolin-1(2H)-one], in assay [1], the pIC50 was above 8.00.
Same read-out and setting: for `Nc1nc(-c2cccc(-n3ccc4cc(C5CC5)cc(F)c4c3=O)c2CO)c2cc(-c3ccncc3)[nH]c2n1` [Example 19, 2-{3-[2-amino-6-(pyridin-4-yl)-7H-pyrrolo[2,3-d]pyrimidin-4-yl]-2-(hydroxymethyl)phenyl}-6-cyclopropyl-8-fluoroisoquinolin-1(2H)-one] the value was above 8.00; for `COc1ccc(-c2n[nH]c3nc(N)nc(-c4cccc(-n5ccc6cc(C7CC7)cc(F)c6c5=O)c4CO)c23)cc1` [Example 20, 2-{3-[6-amino-3-(4-methoxyphenyl)-1H-pyrazolo[3,4-d]pyrimidin-4-yl]-2-(hydroxymethyl)phenyl}-6-cyclopropyl-8-fluoroisoquinolin-1(2H)-one], above 8.00.
In the case of `Nc1nc(-c2cccc(-n3ccc4cc(C5CC5)cc(F)c4c3=O)c2CO)c2cc(C3=CCN(CC4CC4)CC3)[nH]c2n1` [Example 92, 2-(3-{2-amino-6-[1-(cyclopropylmethyl)-1,2,3,6-tetrahydropyridin-4-yl]-7H-pyrrolo[2,3-d]pyrimidin-4-yl}-2-(hydroxymethyl)phenyl)-6-cyclopropyl-8-fluoroisoquinolin-1(2H)-one], in assay [2], the pIC50 is 7.21.
Still for that read-out and setting: to `CN(C)CC(=O)N1CC=C(c2cc3c(-c4cccc(-n5ccc6cc(C7CC7)cc(F)c6c5=O)c4CO)nc(N)nc3[nH]2)CC1` [Example 85, 2-[3-(2-amino-6-{1-[2-(dimethylamino)acetyl]-1,2,3,6-tetrahydropyridin-4-yl}-7H-pyrrolo[2,3-d]pyrimidin-4-yl)-2-(hydroxymethyl)phenyl]-6-cyclopropyl-8-fluoroisoquinolin-1(2H)-one] belongs 7.62.
With `Cc1cc2c(-c3cccc(-n4ccc5cc(C6CC6)cc(F)c5c4=O)c3CO)nc(N)nc2[nH]1` [Example 7, 2-[3-(2-amino-6-methyl-7H-pyrrolo[2,3-d]pyrimidin-4-yl)-2-(hydroxymethyl)phenyl]-6-cyclopropyl-8-fluoroisoquinolin-1(2H)-one], in assay [1], the pIC50 is above 8.00.
As for `COc1ccccc1-c1nc2c(-c3cccc(-n4ccc5cc(C6CC6)cc(F)c5c4=O)c3CO)nc(N)nc2[nH]1` [Example 24, 2-{3-[2-amino-8-(2-methoxyphenyl)-9H-purin-6-yl]-2-(hydroxymethyl)phenyl}-6-cyclopropyl-8-fluoroisoquinolin-1(2H)-one], in assay [1], the pIC50 is above 8.00.
Consider `COCCNc1cncc(-c2cc3c(-c4cccc(-n5ccc6cc(C7CC7)cc(F)c6c5=O)c4CO)nc(N)nc3[nH]2)c1` [Example 60, 2-[3-(2-amino-6-{5-[(2-methoxyethyl)amino]pyridin-3-yl}-7H-pyrrolo[2,3-d]pyrimidin-4-yl)-2-(hydroxymethyl)phenyl}-6-cyclopropyl-8-fluoroisoquinolin-1(2H)-one], for which the pIC50 in assay [2] was 7.19.
Take `CN(C)c1ccc(-c2cc3c(-c4cccc(-n5ccc6cc(C7CC7)cc(F)c6c5=O)c4CO)nc(N)nc3[nH]2)cn1` [Example 59, 2-(3-{2-amino-6-[6-(dimethylamino)pyridin-3-yl]-7H-pyrrolo[2,3-d]pyrimidin-4-yl}-2-(hydroxymethyl)phenyl)-6-cyclopropyl-8-fluoroisoquinolin-1(2H)-one]: the pIC50 in assay [2] was 7.20.
For the molecule `CC(C)n1cc(-c2cc3c(-c4cccc(-n5ccc6cc(C7CC7)cc(F)c6c5=O)c4CO)nc(N)nc3[nH]2)cn1` [Example 63, 2-{3-[2-amino-6-(1-isopropyl-1H-pyrazol-4-yl)-7H-pyrrolo[2,3-d]pyrimidin-4-yl]-2-(hydroxymethyl)phenyl}-6-cyclopropyl-8-fluoroisoquinolin-1(2H)-one], the pIC50 in assay [2] is 7.80.
Regarding `C=CC(=O)NCc1cc2c(-c3cccc(-n4ccc5cc(C6CC6)cc(F)c5c4=O)c3CO)nc(N)nc2[nH]1` [Example 30, N-({2-amino-4-[3-(6-cyclopropyl-8-fluoro-1-oxoisoquinolin-2(1H)-yl)-2-(hydroxymethyl)phenyl]-7H-pyrrolo[2,3-d]pyrimidin-6-yl}methyl)acrylamide], in assay [1], the pIC50 is 7.00 to 8.00.
As to `CC(C)(C)OC(=O)N1CC=C(c2cc3c(-c4cccc(-n5ccc6cc(C7CC7)cc(F)c6c5=O)c4CO)nc(N)nc3[nH]2)CC1` [Example 68, tert-butyl 4-{2-amino-4-[3-(6-cyclopropyl-8-fluoro-1-oxoisoquinolin-2(1H)-yl)-2-(hydroxymethyl)phenyl]-7H-pyrrolo[2,3-d]pyrimidin-6-yl}-5,6-dihydropyridine-1(2H)-carboxylate], in assay [2], the pIC50 was 6.94.
Regarding `COc1ccc(-c2cc3c(-c4cccc(-n5ccc6cc(C7CC7)cc(F)c6c5=O)c4CO)nc(N)nc3[nH]2)cn1` [Example 65, 2-{3-[2-amino-6-(6-methoxypyridin-3-yl)-7H-pyrrolo[2,3-d]pyrimidin-4-yl]-2-(hydroxymethyl)phenyl}-6-cyclopropyl-8-fluoroisoquinolin-1(2H)-one], in assay [2], the pIC50 is 6.56.
In the case of `Nc1nc(-c2cccc(-n3ccc4cc(C5CC5)cc(F)c4c3=O)c2CO)c2cc(-c3cc(F)cc(F)c3)[nH]c2n1` [Example 44, 2-{3-[2-amino-6-(3,5-difluorophenyl)-7H-pyrrolo[2,3-d]pyrimidin-4-yl]-2-(hydroxymethyl)phenyl}-6-cyclopropyl-8-fluoroisoquinolin-1(2H)-one], the pIC50 in assay [2] was 6.05.
